Results reported in US20060058346A1, “Novel enantiomers of etrahydroisoquinoline derivatives and theirpharmaceutically acceptable salts, their preparations and pharmaceutical compositions” (priority 2002, published 2006).

Columns and labels:
iNOS = assay: Expression of iNOS stimulated by LPS in macrophage cell, Western blotting; assay type: cell-based; conditions: LPS 1 μg/ml; 10, 50, 100 μM; FIG. 1
Protocol: Macrophage cells (RAW 264.7 cell) were plated on 100 mm culture dishes at a density of 1-2×10^5 cells and incubated in DMEM medium containing 10% fetal calf serum (heat-inactivated), 100 U/ml penicillin, and […] streptomycin in a CO2 incubator. When being grown to complete confluence, macrophage cell was inoculated in serum-free DMEM medium, and further incubated for about 24 hours. Thereafter, macrophage cells were stimulated in the presence of LPS (1 μg/ml) and each of the compounds represented by the formulas 3 to 8 for about 12 hours. Total protein was isolated from the macrophage cells. The isolated protein was quantified by using Bradford method. 10 μg of isolated protein was loaded in SDS-PAGE electroporesis gel. The said gel was transferred to PVDF membrane. Anti-iNOS antibody was added to the said gel, thereafter disposed at 4° C. overnight. Thereafter, secondary antibody was added to the said gel, reacted for 1 hour at the room temperature and sensitized using ECL. Expression of protein was quantified, compared to the expressed Actin.

[1] = system: rat with DIC and MOF induced by endotoxin; assay: Endotoxin-induced DIC and multiple organ failure in rat; assay type: in vivo; conditions: for serum level of FDP compared with R-configuration: 10 mg/kg, FIG. 4
Protocol: Rats (Crj:CD(SD); 250±20 g) were used to test sample. Before the compound was administered, the rat was not fed. The compound was orally administered one time per day for two days in an amount of 10 mg˜25 mg/10 ml/kg/day. Distilled water (control group and LPS group) or enantiomer was administered to the rat repeatedly. After one hour, rat was anaesthetized with intramuscular injection of 50 mg/kg of pentobarbital. […] Thereafter, 50 mg/kg of pentobarbital was injected at 2 hour to the rat by intramuscular injection. Therefore, the rat was anaesthetized for all the experiment and operation.
The blood (2 ml for FDP and 6 ml for other variables) was collected from abdominal artery using a plastic syringe, into glass tube containing soy bean trypsin inhibitor and Bothrops atrox venom to measure FDP and into plastic tube containing 2.2% sodium citrate (1/10, volume/volume). The aggregated blood was centrifuged at 1200×g for 5 minutes two times. Before measurement of FDP, the supernatant was stored at freezer for at least 12 hours. Citrated blood was centrifuged at 2000×g for 30 minutes. The supernatant was used for measurement of fibrinogen and PT or APTT time. The aggregated blood collected in glass tube was disposed at the room temperature for 30 min, centrifuged to give the serum for measurement of AST and BUN.
Platelet from total citrated blood was counted by using automatic platelet counter (PLT-4, Texas International Lab.) PT or APTT time was measured by Beckton Dickenson BBL Fibrosystem (Coctkeysville, USA). FDP analysis was accomplished by using Thrombo-wellcotest kit. The said analysis was accomplished by up and down dilution method semi-quantitatively. Measurement of AST and BUN was accomplished by using Autobiochemical analyzer (Hitach 747, Japan).

LPS-injected rat = assay: Serum/plasma level of nitrate/nitrite (NOx) in LPS-injected rat; assay type: in vivo; conditions: 10 mg/kg compound; LPS 20 mg/kg
Protocol: The rats were divided into three groups; (1) LPS-injected group (LPS was administered to abdominal cavity in an amount of 20 mg/kg), (2) enantiomer-injected group (LPS+the compounds represented by formula 3 to 8 was administered to abdominal cavity) or (3) saline solution-injected group. After administration of LPS, the rats were anaesthetized with pentobarbital. The blood was collected from rats by using heart punching. The plasma level of nitrite was measured by using the nitrate reductase derived from Aspergillus species, where the nitrate was reduced by enzyme. Particularly, the plasma was diluted with distilled water in a ratio of 1:10. Analysis buffering solution (KH2PO4 50 Mm, NADPH 0.6 Mm, FAD 5 Mm and nitrate reductase 10 U/ml, Ph 5.5) was added to the said plasma. Thereafter, the reaction was accomplished at 37° C. for 30 min. The plasma level of nitrite was measured by using sodium nitrite as a standard, and Griess solution. Standard curve to nitrite was calculated from the result derived from incubation in analysis buffering solution.

Structure (SMILES) | expression of iNOS protein (iNOS) | serum level of FDP compared with R-configuration [1] | platelet concentration compared with R-configuration ([1]; FIG. 2) | serum level of AST ([1]; LPS 15 mg/kg i.v. 4 hours) | serum level of BUN, formula 3 versus formula 4 ([1]; LPS 15 mg/kg i.v. 4 hours) | plasma level of NOx (LPS-injected rat) | platelet concentration, higher than with R-configuration ([1]; 10 mg/kg oral, LPS 15 mg/kg i.v. 4 hours) | platelet concentration compared with LPS only ([1]; FIG. 2)
Oc1ccc(C[C@@H]2NCCc3cc(O)c(O)cc32)cc1 [Formula 3, (S)-6,7-Dihydroxy-1-(p-hydroxyphenylmethyl)-1,2,3,4-tetrahydroisoquinoline] | inhibited expression of iNOS protein strongly than R-enantiomer | lower | higher | at the normal level | no difference | 29 ± 3 µM |  | 
Oc1ccc(C[C@H]2NCCc3cc(O)c(O)cc32)cc1 [Formula 4, (R)-6,7-Dihydroxy-1-(p-hydroxyphenylmethyl)-1,2,3,4-tetrahydroisoquinoline] |  |  |  | at the normal level | no difference | 85 ± 7 µM |  | 
Oc1cc2c(cc1O)[C@H](Cc1cccc3ccccc13)NCC2 [Formula 5] | inhibited expression of iNOS protein strongly than R-enantiomer | lower |  |  |  |  | 20% | 
Oc1cc2c(cc1O)[C@@H](Cc1cccc3ccccc13)NCC2 [Formula 6, (R)-6,7-Dihydroxy-1-(α-naphthylmethyl)-1,2,3,4-tetrahydroisoquinoline] |  |  |  | at the normal level |  |  |  | 
Oc1cc2c(cc1O)[C@H](Cc1ccc3ccccc3c1)NCC2 [Formula 7, (S)-6,7-Dihydroxy-1-(β-naphthylmethyl)-1,2,3,4-tetrahydroisoquinoline] | inhibited expression of iNOS protein strongly than R-enantiomer | lower |  |  |  |  |  | higher
Oc1cc2c(cc1O)[C@@H](Cc1ccc3ccccc3c1)NCC2 [Formula 8, (R)-6,7-Dihydroxy-1-(β-naphthylmethyl)-1,2,3,4-tetrahydroisoquinoline] |  |  |  |  |  |  |  | higher
